Assay results from patent US9340590B2 (priority 2011, dated 2016).
Positions of bridges follow the written chain, without caps; N, C: chain ends. Residues, ends and D or L forms follow the SMILES beside them.

Legend:
Experiment in all cases: cell-based
hNav1.5 = hNav1.5 (Homo sapiens, UniProt Q14524); conditions: IonWorks Quattro, Use; read-out: IWQ Use Nav1.5
hNav1.7 = hNav1.7 (Homo sapiens, UniProt Q15858); assay type: cell-based; conditions: IonWorks Quattro, Use; read-out: IWQ Use Nav1.7
hNav1.3 = hNav1.3 (Homo sapiens, UniProt Q9NY46); conditions: IonWorks Quattro, Use; read-out: IWQ Use Nav1.3

Sequence of hNav1.5 (Q14524 whole entry, looked up): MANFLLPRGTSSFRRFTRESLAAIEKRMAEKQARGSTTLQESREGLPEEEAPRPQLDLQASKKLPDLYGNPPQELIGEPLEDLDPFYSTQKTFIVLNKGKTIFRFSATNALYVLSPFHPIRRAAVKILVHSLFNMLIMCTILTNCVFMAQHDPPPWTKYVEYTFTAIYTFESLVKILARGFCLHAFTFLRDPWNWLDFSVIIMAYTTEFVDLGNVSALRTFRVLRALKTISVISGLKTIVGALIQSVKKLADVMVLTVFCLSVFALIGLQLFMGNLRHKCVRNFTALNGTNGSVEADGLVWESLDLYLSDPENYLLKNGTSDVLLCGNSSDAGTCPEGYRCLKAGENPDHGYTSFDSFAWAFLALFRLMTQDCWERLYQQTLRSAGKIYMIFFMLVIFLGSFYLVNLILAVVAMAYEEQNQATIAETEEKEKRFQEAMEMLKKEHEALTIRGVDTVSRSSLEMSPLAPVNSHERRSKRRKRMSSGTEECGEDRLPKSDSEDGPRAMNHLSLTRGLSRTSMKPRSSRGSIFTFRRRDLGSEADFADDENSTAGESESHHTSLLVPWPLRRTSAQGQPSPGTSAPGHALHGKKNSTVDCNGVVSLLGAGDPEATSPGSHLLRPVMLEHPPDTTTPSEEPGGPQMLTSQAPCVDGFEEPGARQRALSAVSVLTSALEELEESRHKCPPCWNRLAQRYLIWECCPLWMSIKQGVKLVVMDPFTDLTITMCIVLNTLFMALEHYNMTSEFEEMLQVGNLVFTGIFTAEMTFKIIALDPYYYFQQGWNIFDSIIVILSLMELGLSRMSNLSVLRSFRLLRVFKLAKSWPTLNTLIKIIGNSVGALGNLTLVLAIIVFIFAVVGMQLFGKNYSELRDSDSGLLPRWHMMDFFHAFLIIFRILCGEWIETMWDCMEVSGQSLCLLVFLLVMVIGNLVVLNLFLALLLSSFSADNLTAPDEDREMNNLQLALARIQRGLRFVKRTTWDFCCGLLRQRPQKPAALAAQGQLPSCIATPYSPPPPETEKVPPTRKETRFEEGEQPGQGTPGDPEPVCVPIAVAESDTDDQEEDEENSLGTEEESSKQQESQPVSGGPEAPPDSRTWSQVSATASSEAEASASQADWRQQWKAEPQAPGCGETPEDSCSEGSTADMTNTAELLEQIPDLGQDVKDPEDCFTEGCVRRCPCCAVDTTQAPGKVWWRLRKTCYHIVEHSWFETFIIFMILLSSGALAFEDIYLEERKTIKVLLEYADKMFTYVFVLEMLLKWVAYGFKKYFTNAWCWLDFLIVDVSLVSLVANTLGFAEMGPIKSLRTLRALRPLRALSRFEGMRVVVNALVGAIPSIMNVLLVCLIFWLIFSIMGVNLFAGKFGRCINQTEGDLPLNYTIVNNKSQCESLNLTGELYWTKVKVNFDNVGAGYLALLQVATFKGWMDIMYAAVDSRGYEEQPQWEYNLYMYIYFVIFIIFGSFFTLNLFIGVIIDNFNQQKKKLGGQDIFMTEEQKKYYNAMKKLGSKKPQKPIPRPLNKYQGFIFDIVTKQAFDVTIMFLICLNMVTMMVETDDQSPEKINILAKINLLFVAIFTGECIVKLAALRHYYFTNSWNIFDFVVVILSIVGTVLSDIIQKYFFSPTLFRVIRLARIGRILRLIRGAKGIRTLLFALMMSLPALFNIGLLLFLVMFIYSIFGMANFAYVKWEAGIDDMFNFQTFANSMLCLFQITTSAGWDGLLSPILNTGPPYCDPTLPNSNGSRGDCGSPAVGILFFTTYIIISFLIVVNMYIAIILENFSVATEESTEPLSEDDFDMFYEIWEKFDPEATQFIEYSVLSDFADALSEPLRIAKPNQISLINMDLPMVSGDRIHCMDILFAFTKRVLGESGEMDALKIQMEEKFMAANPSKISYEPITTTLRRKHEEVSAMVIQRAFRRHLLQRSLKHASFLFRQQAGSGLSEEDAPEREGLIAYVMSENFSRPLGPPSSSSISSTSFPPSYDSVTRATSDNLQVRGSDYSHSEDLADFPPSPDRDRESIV
Sequence of hNav1.7 (Q15858 whole entry, looked up): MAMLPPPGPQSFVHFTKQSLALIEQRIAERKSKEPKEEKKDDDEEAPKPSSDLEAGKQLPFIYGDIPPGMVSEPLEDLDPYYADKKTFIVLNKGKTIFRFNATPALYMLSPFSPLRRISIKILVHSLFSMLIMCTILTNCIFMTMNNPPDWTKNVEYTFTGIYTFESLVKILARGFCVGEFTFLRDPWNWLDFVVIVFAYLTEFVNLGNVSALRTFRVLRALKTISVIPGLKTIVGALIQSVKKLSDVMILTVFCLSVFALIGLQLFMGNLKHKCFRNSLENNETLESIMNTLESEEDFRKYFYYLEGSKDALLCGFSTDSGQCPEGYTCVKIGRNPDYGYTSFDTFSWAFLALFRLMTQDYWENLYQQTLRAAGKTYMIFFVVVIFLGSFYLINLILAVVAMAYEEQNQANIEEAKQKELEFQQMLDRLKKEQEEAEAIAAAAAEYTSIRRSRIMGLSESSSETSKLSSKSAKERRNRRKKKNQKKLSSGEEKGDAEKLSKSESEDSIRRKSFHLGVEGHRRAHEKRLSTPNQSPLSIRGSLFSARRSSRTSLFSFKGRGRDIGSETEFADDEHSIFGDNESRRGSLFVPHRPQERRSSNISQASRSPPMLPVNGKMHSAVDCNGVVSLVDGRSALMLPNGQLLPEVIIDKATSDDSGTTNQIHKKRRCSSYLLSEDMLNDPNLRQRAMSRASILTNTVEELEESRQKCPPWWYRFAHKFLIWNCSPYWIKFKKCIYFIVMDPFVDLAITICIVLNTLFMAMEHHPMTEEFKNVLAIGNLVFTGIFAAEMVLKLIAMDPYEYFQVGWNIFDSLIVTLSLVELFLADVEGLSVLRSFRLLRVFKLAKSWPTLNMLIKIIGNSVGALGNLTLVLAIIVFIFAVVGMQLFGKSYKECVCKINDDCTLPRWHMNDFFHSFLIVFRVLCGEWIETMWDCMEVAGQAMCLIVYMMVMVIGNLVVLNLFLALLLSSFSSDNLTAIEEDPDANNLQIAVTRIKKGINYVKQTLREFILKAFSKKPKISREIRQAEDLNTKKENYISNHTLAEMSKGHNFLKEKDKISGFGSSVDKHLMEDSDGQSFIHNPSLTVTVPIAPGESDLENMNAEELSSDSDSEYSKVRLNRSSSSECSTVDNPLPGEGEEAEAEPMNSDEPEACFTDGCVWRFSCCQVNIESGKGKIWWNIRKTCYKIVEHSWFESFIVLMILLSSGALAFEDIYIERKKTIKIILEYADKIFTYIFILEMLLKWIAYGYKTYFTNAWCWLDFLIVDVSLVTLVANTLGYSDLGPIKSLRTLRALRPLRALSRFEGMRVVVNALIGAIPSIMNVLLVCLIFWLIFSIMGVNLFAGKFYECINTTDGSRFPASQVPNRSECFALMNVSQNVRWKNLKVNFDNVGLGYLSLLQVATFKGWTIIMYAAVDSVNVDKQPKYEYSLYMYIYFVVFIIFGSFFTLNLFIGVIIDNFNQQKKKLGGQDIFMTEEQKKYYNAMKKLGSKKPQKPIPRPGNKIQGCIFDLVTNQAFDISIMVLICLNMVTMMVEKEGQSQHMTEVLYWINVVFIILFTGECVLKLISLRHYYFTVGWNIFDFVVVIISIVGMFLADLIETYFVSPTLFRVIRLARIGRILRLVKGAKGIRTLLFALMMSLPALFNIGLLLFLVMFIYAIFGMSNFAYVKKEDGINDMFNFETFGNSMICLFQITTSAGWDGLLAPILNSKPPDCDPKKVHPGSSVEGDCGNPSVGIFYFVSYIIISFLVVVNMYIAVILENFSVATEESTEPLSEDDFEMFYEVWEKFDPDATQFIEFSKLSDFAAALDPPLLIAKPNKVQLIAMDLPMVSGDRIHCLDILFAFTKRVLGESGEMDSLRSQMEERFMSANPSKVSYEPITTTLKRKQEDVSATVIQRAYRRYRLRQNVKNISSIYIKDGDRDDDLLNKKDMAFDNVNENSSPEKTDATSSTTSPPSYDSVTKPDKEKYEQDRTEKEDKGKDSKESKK

SMILES: CC[C@H](C)[C@@H]1NC(=O)[C@@H]2CSSC[C@@H]3NC(=O)[C@H](C(C)C)NC(=O)[C@H](CC(C)C)NC(=O)[C@H](CC(N)=O)NC(=O)[C@H](CO)NC(=O)[C@H](CCCNC(=N)N)NC(=O)[C@H](CSSC[C@H](NC(=O)[C@@H](N)CC(=O)O)C(=O)N[C@@H](CC(C)C)C(=O)NCC(=O)N[C@@H](Cc4ccccc4)C(=O)N[C@@H](CCSC)C(=O)N[C@@H](CCCNC(=N)N)C(=O)N[C@@H](CCCCN)C(=O)N2)NC(=O)[C@H](CSSC[C@@H](C(=O)N[C@@H](CCCCN)C(=O)N[C@@H](Cc2ccc(O)cc2)C(=O)N[C@H](C(=O)N[C@@H](Cc2ccccc2)C(N)=O)C(C)C)NC(=O)[C@H](Cc2c[nH]c4ccccc24)NC(=O)[C@H](CCCCN)NC(=O)[C@H](Cc2c[nH]cn2)NC(=O)[C@H]([C@@H](C)O)NC(=O)[C@H](CCCNC(=N)N)NC(=O)[C@H](CO)NC3=O)NC(=O)[C@H](CCCCN)NC(=O)[C@H](CC(=O)O)NC(=O)[C@H](CC(N)=O)NC(=O)[C@H](CC(=O)O)NC(=O)[C@@H]2CCCN2C1=O [compound 181] (H-DCLGFMRKCIPDNDKCCRSNLVCSRTHKWCKYVF-NH2; disulfide 2-17, 9-23, 16-30)
- IC50 (hNav1.5): 11400 nM
- IC50 (hNav1.7): 88 nM
- IC50 (hNav1.3): 31 nM

SMILES: CC[C@H](C)[C@@H]1NC(=O)[C@@H]2CSSC[C@@H]3NC(=O)[C@H](C(C)C)NC(=O)[C@H](CC(C)C)NC(=O)[C@H](CC(N)=O)NC(=O)[C@@H]4CCCN4C(=O)[C@H](CCCNC(=N)N)NC(=O)[C@H](CSSC[C@H](NC(=O)[C@@H](N)CC(=O)O)C(=O)N[C@@H](CC(C)C)C(=O)NCC(=O)N[C@@H](Cc4ccccc4)C(=O)N[C@@H](CCSC)C(=O)N[C@@H](CCCNC(=N)N)C(=O)N[C@@H](CCCCN)C(=O)N2)NC(=O)[C@H](CSSC[C@@H](C(=O)N[C@@H](CCCCN)C(=O)N[C@@H](Cc2ccc(O)cc2)C(=O)N[C@H](C(=O)N[C@@H](Cc2ccccc2)C(N)=O)C(C)C)NC(=O)[C@H](Cc2c[nH]c4ccccc24)NC(=O)[C@H](CCCCN)NC(=O)[C@H](Cc2c[nH]cn2)NC(=O)[C@H]([C@@H](C)O)NC(=O)[C@H](CCCNC(=N)N)NC(=O)[C@H](CO)NC3=O)NC(=O)[C@H](CCCCN)NC(=O)[C@H](CC(=O)O)NC(=O)[C@H](CC(N)=O)NC(=O)[C@H](CC(C)C)NC(=O)[C@@H]2CCCN2C1=O [compound 193] (H-DCLGFMRKCIPLNDKCCRPNLVCSRTHKWCKYVF-NH2; disulfide 2-17, 9-23, 16-30)
- IC50 (hNav1.5): 6830 nM
- IC50 (hNav1.7): 80 nM
- IC50 (hNav1.3): 71 nM

SMILES: CC[C@H](C)[C@@H]1NC(=O)[C@@H]2CSSC[C@@H]3NC(=O)[C@H](C(C)C)NC(=O)[C@H](CC(C)C)NC(=O)[C@H](CC(N)=O)NC(=O)[C@@H]4CCCN4C(=O)[C@H](CCCNC(=N)N)NC(=O)[C@H](CSSC[C@H](NC(=O)[C@@H](N)CC(=O)O)C(=O)N[C@@H](CC(C)C)C(=O)NCC(=O)N[C@@H](Cc4ccccc4)C(=O)N[C@@H](CCSC)C(=O)N[C@@H](CCCNC(=N)N)C(=O)N[C@@H](CCCCN)C(=O)N2)NC(=O)[C@H](CSSC[C@@H](C(=O)N[C@@H](CCCCN)C(=O)N[C@@H](Cc2ccc(O)cc2)C(=O)N[C@H](C(=O)N[C@@H](Cc2ccccc2)C(N)=O)C(C)C)NC(=O)[C@H](Cc2c[nH]c4ccccc24)NC(=O)[C@H](CCCCN)NC(=O)[C@H](Cc2c[nH]cn2)NC(=O)[C@H]([C@@H](C)O)NC(=O)[C@H](CCCNC(=N)N)NC(=O)[C@H](CO)NC3=O)NC(=O)[C@H](CCCCN)NC(=O)[C@H](CC(=O)O)NC(=O)[C@H](CC(N)=O)NC(=O)CNC(=O)[C@@H]2CCCN2C1=O [compound 194] (H-DCLGFMRKCIPGNDKCCRPNLVCSRTHKWCKYVF-NH2; disulfide 2-17, 9-23, 16-30)
- IC50 (hNav1.5): 8760 nM
- IC50 (hNav1.7): 75 nM
- IC50 (hNav1.3): 47 nM
